In one assay the target is T1, ZIKV RdRp (Zika virus, UniProt A0A024B7W1).
T1 construct: we expressed and purified ZIKV RdRp domain; made in house; host or cells: Escherichia coli BL21 (DE3)
Description: In vitro ZIKV RdRp activity assay (Syto9 fluorescence). It is filed as biochemical. The following applies: purified ZIKV RdRp domain, poly-U/ATP, 30°C 60 min; read-out: EC50, inhibition of ZIKV RdRp activity. The text has this: Through molecular docking experiments and cell thermal shift analysis, we supose that 4w may have a direct interaction with ZIKV RdRp. In order to verify whether the binding of 4w and NS5 protein is directly related to ZIKV RdRp, we expressed and purified ZIKV RdRp domain, and detected its activity according to the method described in the literature ([Qian et al., 2022]) (Figure 6A). […] Heparin is a protein chelating agent. […] Heparin was selected as the positive control drug in this experiment, and the syto9-only group was used as the negative control, the same volume of DMSO as a positive control.
The ZIKV RdRp was expressed and purified, and the protein expression and purification method was as described before ([Xu et al., 2017]; [Sáez-Álvarez et al., 2019]). 4w was diluted with protein dialysis buffer to 1,500 nM and stored for later use. In vitro RdRp polymerase activity assay was described previously ([Qian et al., 2022]), 1,500 ng of purified RdRp protein, gradient diluted 4w and positive control drug 5 μM, 2 mg/ml Poly-U, 20mM ATP, 1M Tris-HCl, 100 mg/ml BSA, 100mM MnCl2 was added to a 96-well PCR plate. After mixing, the reaction was performed at 30°C in the dark for 60 min. […] RdRp protein activity was detected on a real-time fluorescence quantitative PCR instrument.

In assay [1] the test system is ZIKV. Description: Plaque assay, anti-ZIKV activity in Vero cells. The assay is classed as cell-based, Zika virus.
Description: Initially, the novel acetylarylamine-S-DACOs 4a-z were tested for their cytotoxicity and anti-ZIKV activity in Vero cells by plaque formation according to previously detailed procedure ([Xu et al., 2017]).
Vero cells were inoculated in a 12-well plate at 3 × 10^5 cells/ml and cultured overnight, the medium was discarded and cells were washed with PBS, then the ZIKV (MOI = 0.5) was added to infect at 37°C for 2 h. The cells were washed with PBS, and then a mixture of DMEM supplemented with 4% FBS and 2% low-melting agarose (Amresco, United States) was overlaid on the cells. Next, the cells were fixed with 4% paraformaldehyde for 15 min at 5d post-infection (hpi), washed twice with PBS and stained with 0.8% crystal violet for 10 min. Finally, an enzyme-linked fluorescence spot spectrometer (CTL, United States) was used for image acquisition.
The data and graphs were processed using GraphPad Prism8 software, expressed as mean ± standard deviation (Mean ± SD), comparison between groups using ANOVA, p < 0.05 was considered statistically significant.
Assay [2] concerns ZIKV RNA. Description: qRT-PCR viral load in supernatant of ZIKV-infected Huh7 cells. It is filed as cell-based. Particulars: Zika virus, Huh-7, read-out: EC50, inhibition of ZIKV RNA replication. An excerpt: (§1) In order to re-verify the inhibitory effect of 4w on ZIKV at the molecular level, we used ZIKV to infect cell lines of different origins (A549, Vero, Huh7 cells) and then treated with 4w in a concentration gradient. The change of viral load in the supernatant of cells after treatment was detected by qRT-PCR method.
(§2) Cells were infected with ZIKV SZ-WIV01 and then treated with 4w. The viral load in the supernatant was detected by Quantitative real-time polymerase chain reaction (qRT-PCR) at in different time periods after infection. Then the RNA from culture supernatant was extracted using the EasyPure ® Viral DNA/RNA Kit (TransGen Biotech, China) following the manufacturer’s instructions. Intracellular RNA extraction was according to trizol method. A one-step qRT-PCR kit RNA-direct™ Realtime PCR Master Mix (TOYOBO, Japan) and TaqMan probe were used to quantify the viral RNA produced. The primers (NS5 ZIKV 1086F: 5′-CCGCTGCCCAACACAAG-3′ and NS5 ZIKV 1086R: 3′-[…] C-5′) and probe (5′-FAM-[…]-TAMRA -3′) were used for amplification of the ZIKV NS5 region. A standard curve of the serial dilutions was used to quantify the viral RNA yield.
(§3) The 50% effective concentration (EC50) and 50% cytotoxic concentration (CC50) of the compound were calculated according to the Reed and Muench method, inhibition rate of ZIKV RNA yield- [(1-drug treatment/positive control) × 100]. […]

In the next assay the target is T2, ZIKV NS5 protein (Zika virus, UniProt A0A024B7W1).
T2 construct: endogenous in cells; host or cells: Vero cells infected with ZIKV
T2 sequence (A0A024B7W1 2521-3423): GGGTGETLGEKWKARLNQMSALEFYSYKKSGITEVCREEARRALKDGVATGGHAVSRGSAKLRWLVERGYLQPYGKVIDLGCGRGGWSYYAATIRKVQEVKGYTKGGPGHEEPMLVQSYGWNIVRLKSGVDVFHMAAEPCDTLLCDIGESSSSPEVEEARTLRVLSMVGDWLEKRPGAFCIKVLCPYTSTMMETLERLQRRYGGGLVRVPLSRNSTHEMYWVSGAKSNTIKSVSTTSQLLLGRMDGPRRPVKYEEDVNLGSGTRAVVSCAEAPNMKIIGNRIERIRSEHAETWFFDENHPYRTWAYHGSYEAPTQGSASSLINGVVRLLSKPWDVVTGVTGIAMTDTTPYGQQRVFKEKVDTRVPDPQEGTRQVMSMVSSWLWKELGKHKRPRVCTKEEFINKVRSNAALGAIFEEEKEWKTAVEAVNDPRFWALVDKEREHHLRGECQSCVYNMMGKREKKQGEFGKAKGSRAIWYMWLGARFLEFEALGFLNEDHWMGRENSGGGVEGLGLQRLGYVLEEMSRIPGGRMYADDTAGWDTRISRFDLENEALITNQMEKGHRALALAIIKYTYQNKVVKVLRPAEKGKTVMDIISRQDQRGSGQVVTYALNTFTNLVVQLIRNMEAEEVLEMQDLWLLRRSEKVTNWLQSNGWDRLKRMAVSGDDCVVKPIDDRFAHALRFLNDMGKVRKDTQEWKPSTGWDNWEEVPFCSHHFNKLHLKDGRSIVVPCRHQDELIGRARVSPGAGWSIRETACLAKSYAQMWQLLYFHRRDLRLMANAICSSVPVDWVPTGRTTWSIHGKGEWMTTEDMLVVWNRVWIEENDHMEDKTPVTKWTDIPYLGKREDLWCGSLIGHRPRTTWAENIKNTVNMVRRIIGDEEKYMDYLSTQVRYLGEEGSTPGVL
Description: Cell thermal shift assay (CETSA) with WB detection. It is filed as binding. Particulars: 50 μM, lysate of ZIKV-infected Vero cells, 60 min; DMSO control 42.3°C. Here is the method:
Cell thermal shift assay (CETSA) experiments are often used to detect the binding of intracellular drugs to target proteins. The assay was based on the principle of ligand-induced changes in protein thermal stability. The stability of the protein is evaluated by comparing the melting curves between the control group and the experimental group, thus assessing the interaction of the compound with the target protein.
Therefore, in order to further verify the interaction between 4w and ZIKV NS5, ZIKV-infected cell were treated with 4w (at 50 μM concentration), then total protein was incubation for 60 min at room temperature, and it was divided into nine equal parts. The same volume of DMSO was added as a control, and the treated protein was heated in a temperature gradient and then detected ZIKV NS5 protein by WB assay (Figure 5A).
Vero cells were inoculated in a 10 cm cell culture dish and cultured overnight, and after infection with ZIKV (MOI ≈2), maintenance medium was added to continue culturing for 3 days. Detergent-free protein lysis buffer (25 mM HEPES, 20 mM MgCl2, 2 mM DTT) was added, and cells were lysed by sonication. […] The supernatants were collected to prepare the samples, and the binding of 4w and ZIKV NS5 protein was analyzed by Western blotting ([Chen et al., 2020]; [Chen et al., 2021]).

The test system of assay [3] is ZIKV RNA. Description: qRT-PCR viral load in supernatant of ZIKV-infected A549 cells. The following applies: Zika virus, A549, read-out: EC50, inhibition of ZIKV RNA replication. The assay is classed as cell-based.
Description: as §1, §2, §3

The subject of assay [4] is ZIKV. Description: Time of drug withdrawal experiment. The following applies: 50 μM, drug withdrawal 4–6 h after dosing, viral load after 24 h. It is filed as cell-based, Zika virus. Here is the method:
ZIKV RdRp was a important domain in the C-terminal of ZIKV NS5, and plays a crucial role in the replication and synthesis of RNA in the life cycle of ZIKV. In order to further verify that 4w activity is related to RdRp domain inhibition, we examined the effect of 4w on the replication cycle of ZIKV using four different drug treatments and time-sharing withdrawal experiments (Figure 7A).
The virus was added to the cells and adsorbed for 2 h at 4°C, then the unabsorbed virus was washed away with pre-cooled PBS, and 50 μM 4w was added at the same time. Withdraw the drug at 1, 2, 4, 6, 8, and 12 h after dosing. The cell supernatant was collected for viral load detection after the maintenance medium continued to culture for 24 h.

Structures are written as SMILES.

The values below come from article PMC9605737, “Identification of 6ω-cyclohexyl-2-(phenylamino carbonylmethylthio)pyrimidin-4(3H)-ones targeting the ZIKV NS5 RNA dependent RNA polymerase” (Frontiers in Chemistry, 2022).

The term EC50 denotes the midpoint of the concentration-response curve.

T1 sequence (A0A024B7W1 2793-3423): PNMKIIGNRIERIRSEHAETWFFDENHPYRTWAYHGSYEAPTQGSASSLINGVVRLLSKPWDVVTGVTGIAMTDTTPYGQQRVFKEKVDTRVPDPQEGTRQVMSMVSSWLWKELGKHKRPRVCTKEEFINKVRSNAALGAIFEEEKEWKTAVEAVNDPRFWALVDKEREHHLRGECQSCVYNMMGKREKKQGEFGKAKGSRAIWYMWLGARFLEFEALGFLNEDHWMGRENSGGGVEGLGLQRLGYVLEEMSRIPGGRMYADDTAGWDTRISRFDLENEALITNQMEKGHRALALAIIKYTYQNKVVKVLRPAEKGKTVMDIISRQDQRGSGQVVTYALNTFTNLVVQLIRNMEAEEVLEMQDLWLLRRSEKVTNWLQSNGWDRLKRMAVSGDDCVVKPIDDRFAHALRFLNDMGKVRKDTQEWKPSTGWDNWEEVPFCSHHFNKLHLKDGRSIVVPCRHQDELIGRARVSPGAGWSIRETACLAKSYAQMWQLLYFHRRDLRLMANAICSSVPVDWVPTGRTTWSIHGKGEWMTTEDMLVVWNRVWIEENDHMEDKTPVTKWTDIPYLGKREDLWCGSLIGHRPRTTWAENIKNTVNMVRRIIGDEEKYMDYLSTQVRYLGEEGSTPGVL

Take `CCc1c(C2CCCCC2)nc(SCC(=O)Nc2cc(F)cc(F)c2)[nH]c1=O` [Compound 4w, 2-{[4-cyclohexyl-5-ethyl-6-oxo-1,6-dihydropyrimidin-2-yl]thio}-N-(3,5-difluorophenyl)acetamide]: the concentration giving a half-maximal response (EC50) at ZIKV RdRp was found to be 11.4 ± 0.51 µM; in the assay with ZIKV [1] (Zika virus, plaque assay, independently in triplicate, read-out: EC50 (anti-ZIKV activity, plaque formation)), 7.65 ± 0.31 µM; with ZIKV RNA [2], 6.76 ± 0.52 µM; in the assay with ZIKV RNA [3], 5.18 ± 0.69 µM. Further, the “SI (selectivity index, CC50/EC50 ratio)” value in the assay on ZIKV [1] is recorded as above 26. In addition, at ZIKV NS5 protein, the “apparent aggregation temperature (Tagg) of ZIKV NS5 protein” value turned out to be 49.3 °C. Moreover, in the assay with ZIKV [4], the “effect of drug withdrawal on release of progeny virus” value is “significantly inhibit the release of progeny virus”.
